We go through twelve compounds from patent US20220235006A1, “PYRIDINE DERIVATIVES AS TMEM16A MODULATORS FOR USE IN THE TREATMENT OF RESPIRATORY CONDITIONS” (TMEM16A LIMITED, priority 2019, published 2022).

In brackets after ≈: the same amount, converted by molar mass. Bounds are passed on as bounds.

In series [1] the target is T1, human TMEM16A (TMEM16Aabc variant) (Homo sapiens, UniProt Q5XXA6, DEL476-501).
T1 sequence (Q5XXA6 with tags, fused parts or gaps isoform Q5XXA6-5 DEL539-564): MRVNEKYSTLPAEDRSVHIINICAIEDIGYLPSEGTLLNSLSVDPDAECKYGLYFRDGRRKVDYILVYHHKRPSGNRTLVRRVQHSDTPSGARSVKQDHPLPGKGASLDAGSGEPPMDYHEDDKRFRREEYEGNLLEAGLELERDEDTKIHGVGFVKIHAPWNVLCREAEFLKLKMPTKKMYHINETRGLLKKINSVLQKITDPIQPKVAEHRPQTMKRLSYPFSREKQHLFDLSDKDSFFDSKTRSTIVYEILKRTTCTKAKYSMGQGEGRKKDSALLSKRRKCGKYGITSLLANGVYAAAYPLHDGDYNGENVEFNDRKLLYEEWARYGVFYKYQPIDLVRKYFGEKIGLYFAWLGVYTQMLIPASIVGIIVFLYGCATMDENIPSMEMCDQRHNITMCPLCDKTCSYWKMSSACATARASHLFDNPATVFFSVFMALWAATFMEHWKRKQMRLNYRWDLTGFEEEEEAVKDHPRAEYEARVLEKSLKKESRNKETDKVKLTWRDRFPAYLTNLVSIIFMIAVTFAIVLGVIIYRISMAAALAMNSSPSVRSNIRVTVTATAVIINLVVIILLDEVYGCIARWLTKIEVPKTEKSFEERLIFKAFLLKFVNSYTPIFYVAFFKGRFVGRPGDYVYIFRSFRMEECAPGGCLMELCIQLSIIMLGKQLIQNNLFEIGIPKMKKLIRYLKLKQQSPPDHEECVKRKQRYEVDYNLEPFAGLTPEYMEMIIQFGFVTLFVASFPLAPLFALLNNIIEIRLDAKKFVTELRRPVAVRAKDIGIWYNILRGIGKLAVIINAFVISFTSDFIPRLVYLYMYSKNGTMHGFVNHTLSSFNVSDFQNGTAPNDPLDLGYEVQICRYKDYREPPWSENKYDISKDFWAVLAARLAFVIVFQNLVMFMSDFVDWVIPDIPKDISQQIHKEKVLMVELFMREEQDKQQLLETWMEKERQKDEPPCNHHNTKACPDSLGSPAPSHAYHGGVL
Description: Automated whole-cell patch clamp (Qpatch) TMEM16A potentiator assay in recombinant FRT cells. It counts as cell-based. Conditions: for activation at 3.33 µM: percentage increase of baseline TMEM16A current, minimum n = 2, read-out: % Potentiation @ 3.33 uM Avg; for EC50: minimum n = 2. The procedure: Automated Whole-Cell Patch Clamp Assay to Detect TMEM16A Activity in Recombinant Cells
Fisher rat thyroid (FRT) cells stably expressing human TMEM16A (TMEM16Aabc variant; Dr Luis Galietta, Insituto Giannina, Italy) were cultured in T-75 flasks in Hams F-12 media with Coon's modification (Sigma) supplemented with 10% (v/v) foetal bovine serum, penicillin-streptomycin (10,000 U/mL/10000 μg/mL), G-418 (750 μg/mL), L-glutamine (2 mM) and sodium bicarbonate solution (7.5% v/v). At ˜90% confluence cells were harvested for experiments by detachment with a 2:1 (v/v) mixture of Detachin (BMS Biotechnology) and 0.25% (w/v) trypsin-EDTA.
FRT-TMEM16A cells were whole-cell patch clamped using an automated planar patch clamp system (Qpatch, Sophion). Briefly, once high resistance (GOhm) seals were established between the cells and the planar recording array the patch was ruptured using suction pulses to establish the whole-cell recording configuration of the patch clamp technique. The assay employed the following solutions (all reagents Sigma): Intracellular solution (mM): N-methyl-D-glucamine 130, CaCl2 18.2, MgCl2 1, HEPES 10, EGTA 10, BAPTA 20, Mg-ATP 2, pH 7.25, 325 mOsm with sucrose.
Extracellular solution (mM): N-methyl-D-glucamine 130, CaCl2 2, MgCl2 1, HEPES 10, pH 7.3, 320 mOsm with sucrose.
The intracellular solution buffers intracellular calcium at levels required to give ˜20% activation of the maximal TMEM16A mediated current (E020 for calcium ions). Cells were voltage clamped at a holding potential of −70mV and a combined voltage step (to +70 mV)/ramp (−90 my to +90 mV) was applied at 0.05 Hz. After a period of current stabilisation test compounds, solubilised in 100% (v/v) DMSO and subsequently diluted into extracellular solution, were applied to generate a cumulative concentration response curve. Each concentration of test compound was incubated for 5 minutes before addition of the next concentration. After the final concentration was tested a supramaximal concentration of either a known active positive modulator or the TMEM16A inhibitor, CaCCinhA01 (Del La Fuente et al, 2008) was added to define the upper and lower limits of the assay.
Compound activity was quantified by measuring the increase in current upon compound addition and expressing this as a percentage increase of baseline TMEM16A current level.
Peak TMEM16A current at +70 mV was plotted as a function of time over the assay period. Baseline current (IBL) was measured after a period of stabilisation. The increase in current for each compound addition was determined by taking the peak current during the incubation period and subtracting the current from the previous recording period and then expressing this as a percentage of the baseline current (% potentiation). For test compound concentration 1 in FIG. 1 this is:
For each additional concentration tested the increase in current was determined by subtracting the current from the previous incubation period and normalising the baseline value—for test concentration 2 in FIG. 1 this is:
The values for each test concentration were plotted as a cumulative function of concentration eg. for test concentration two this would be the sum of the peak changes measured during concentration one plus concentration two.

The nature of series [2]: Kinetic solubility determination (high throughput). It counts as physicochemical. Conditions: kinetic from dmso stock, sterile water, 5% DMSO, room temperature. The procedure: Test compounds (10 μL; 20 mM DMSO solution) were added to sterile water (190 μL) in triplicate and shaken at 300 rpm at room temperature. After 90 min. the test compounds were filtered by centrifuge (5 min. at 3000 rpm) to obtain the aqueous filtrate. Acetonitrile (20 μL) was dispensed into clean 96-well UV/VIS analysis plate and aqueous filtrate (80 μL) added and the plate analysed for test compound concentration using a Molecular Devices SPECTRAmax® plus microplate reader at the following wavelengths: (280, 300, 320, 340, 360, 800 nm). […] The diluted filtrate (80 μL) was then added to acetonitrile (20 μL) and the plate analysed. as previously.

Series [3] in a line: Log D (pH7.4 shake flask). Conditions: pH 7.4; 1-octanol/phosphate buffer shake flask; read-out: mLogD (pH 7.4). It counts as physicochemical. The procedure:
Phosphate buffer (1 M) was diluted to 20 mM with deionised water and adjusted to pH 7.4 with phosphoric acid or sodium hydroxide. 1-octanol and phosphate buffer (20 mM) were saturated overnight by tumbling. The two phases were separated using a separation funnel. 5 μL of 5 mM compound cassette was added to 495 μL of octanol-saturated buffer and 495 μL buffer saturated octanol in a 96-well plate (top concentration 50 μM). Plate was shaken for 1 h and centrifuged at 25° C. for 5 min. 200 μL of each phase was transferred to a separate plate. The octanol layer was sampled first to avoid cross contamination. 5 μL of the solutions were transferred to 495 μL of quench solution* (max concentration 0.5 μM). In addition, 40 μL of buffer solution was added to 360 μL of quench solvent (max concentration 5 μM). Samples were analysed by LC-MS/MS. Benchmarking against a calibration curve for each compound and with reference to the control compounds sulpride, diclofenac, chlorpromazine and tamoxifen. *Quench solution was a 1:3:1 mixture (v/v/v) of Acetonitrile containing 0.1% formic acid and imipramine/labetalol, 200 nM:Acetonitrile:Water.

`CC(C)(C#N)NC(=O)c1cc(NC(=O)Cc2cc(O)c(C(C)(O)C(F)(F)F)cc2F)ccn1` (stereo not drawn) [Example 2.7, N-(1-Cyano-1-methyl-ethyl)-4-[[2-[2-fluoro-5-hydroxy-4-(2,2,2-trifluoro-1-hydroxy-1-methyl-ethyl)phenyl]acetyl]amino]pyridine-2-carboxamide]: in series [1], the activation at 3.33 µM was 309% and the half-maximal effective concentration (EC50) turned out to be 0.219 µM. Besides, the solubility (kinetic) at 90 min in series [2] was determined as 0.164 mg/mL (≈ 350 µM). Also, the logD in series [3] is 3.
`CC(C)(C#N)c1cc(F)c(CC(=O)Nc2ccnc(C(=O)NC3(C(F)(F)F)CC3)c2)cc1O` [Example 2.3, 4-[[2-[4-(1-Cyano-1-methyl-ethyl)-2-fluoro-5-hydroxy-phenyl]acetyl]amino]-N-[1-(trifluoromethyl)cyclopropyl]pyridine-2-carboxamide]: in series [1], the activation at 3.33 µM is 72.1% and the EC50 stood at 0.052 µM. The compound further had a solubility (kinetic) at 90 min in series [2] of 0.069 mg/mL (≈ 149 µM). Moreover, the logD in series [3] came to 2.9.
As to `CC(C)(C)c1cc(Cl)c(CC(=O)Nc2ccnc(C(=O)NC3(C#N)CC3)c2)cc1O` [Example 10.2, 4-[[2-(4-tert-Butyl-2-chloro-5-hydroxy-phenyl)acetyl]amino]-N-(1-cyanocyclopropyl)pyridine-2-carboxamide], in series [1], the activation at 3.33 µM is 252% and the EC50 was found to be 0.052 µM. Also, in series [2], the solubility (kinetic) at 90 min worked out at 0.011 mg/mL (≈ 25.8 µM). Also, the logD in series [3] worked out at 3.7.
Regarding `CC(C)(C)c1cc(F)c(CC(=O)Nc2ccnc(C(=O)NC3(C#N)CC3)c2)cc1O` [Example 1.5], in series [1], the activation at 3.33 µM was found to be 148% and the EC50 turned out to be 0.065 µM. For the same compound, in series [2], the kinetic solubility at 90 min turned out to be 0.011 mg/mL (≈ 26.8 µM). In addition, the logD in series [3] was determined as 3.7.
Turning to `C=C(C)c1cc(F)c(CC(=O)Nc2ccnc(C(=O)NC3(C(F)(F)F)CC3)c2)cc1O` [Example 7.1, 4-[[2-(2-Fluoro-5-hydroxy-4-isopropenyl-phenyl)acetyl]amino]-N-[1-(trifluoromethyl)cyclopropyl]pyridine-2-carboxamide], in series [1], the activation at 3.33 µM was found to be 433% and the EC50 amounted to 0.015 µM. The same compound returned a kinetic solubility at 90 min in series [2] of 0.018 mg/mL (≈ 41.2 µM). Moreover, the logD in series [3] is greater than 4.2.
As for `CC(C)(C#N)NC(=O)c1cc(NC(=O)Cc2cc(O)c(C3(C)CCC3)cc2F)ccn1` [Example 5, N-(1-Cyano-1-methyl-ethyl)-4-[[2-[2-fluoro-5-hydroxy-4-(1-methylcyclobutyl)phenyl]acetyl]amino]pyridine-2-carboxamide], in series [1], the activation at 3.33 µM was determined as 335% and the EC50 is 0.043 µM. For the same compound, the solubility (kinetic) at 90 min in series [2] is 0.017 mg/mL (≈ 40 µM). Moreover, the logD in series [3] is greater than 4.
The corresponding values for `CC(C)(C)NC(=O)c1cc(NC(=O)Cc2cc(O)c(C3(C)CC3)cc2F)ccn1` [Example 8, N-tert-Butyl-4-[[2-[2-fluoro-5-hydroxy-4-(1-methylcyclopropyl)phenyl]acetyl]amino]pyridine-2-carboxamide] are 240%, 0.046 µM, 0.037 mg/mL (≈ 92.6 µM) and greater than 4.
For `[2H]c1c(O)c(C(C([2H])([2H])[2H])(C([2H])([2H])[2H])C([2H])([2H])[2H])cc(F)c1CC(=O)Nc1ccnc(C(=O)NC2(C#N)CC2)c1` [Example 4, N-(1-Cyanocyclopropyl)-4-[[2-[2-deuterio-6-fluoro-3-hydroxy-4-[2,2,2-trideuterio-1,1-bis(trideuteriomethyl)ethyl]phenyl]acetyl]amino]pyridine-2-carboxamide], in series [1], the activation at 3.33 µM was 186% and the EC50 amounted to 0.029 µM. Further, in series [2], the solubility (kinetic) at 90 min came out at 0.029 mg/mL (≈ 69 µM). Further, the logD in series [3] came out at 3.8.
As for `C#CC1(NC(=O)c2cc(NC(=O)Cc3cc(O)c(C(C)(C)C)cc3F)ccn2)CCCC1` [Example 1.2], in series [1], the activation at 3.33 µM is 149% and the EC50 came to 0.045 µM. The kinetic solubility at 90 min in series [2] was 0.003 mg/mL (≈ 6.86 µM). Moreover, the logD in series [3] was greater than 4.5.
On to `CC(C)(C#N)NC(=O)c1cc(NC(=O)Cc2cc(O)c(C3(C(F)(F)F)CCO3)cc2F)ccn1` (stereo not drawn) [Example 2.14, N-(1-Cyano-1-methyl-ethyl)-4-[[2-[2-fluoro-5-hydroxy-4-[2-(trifluoromethyl)oxetan-2-yl]phenyl]acetyl]amino]pyridine-2-carboxamide], for which, in series [1], the activation at 3.33 µM is 122% and the EC50 came out at 0.027 µM. The same compound came in with a solubility (kinetic) at 90 min in series [2] of 0.099 mg/mL (≈ 206 µM).
Consider `CC(C)(C#N)NC(=O)c1cc(NC(=O)Cc2cc(O)c(C(C)(C)C)cc2F)c(F)cn1` [Example 3, 4-[[2-(4-tert-Butyl-2-fluoro-5-hydroxy-phenyl)acetyl]amino]-N-(1-cyano-1-methyl-ethyl)-5-fluoro-pyridine-2-carboxamide], for which, in series [1], the activation at 3.33 µM was 353% and the EC50 amounted to 0.132 µM. Further, the logD in series [3] worked out at 3.9.
In the same order, the values of `O=C(Cc1cc(O)c(C2(C(F)(F)F)CCO2)cc1F)Nc1ccnc(C(=O)NC2(C(F)(F)F)CC2)c1` (stereo not drawn) [Example 2.10, 4-[[2-[2-Fluoro-5-hydroxy-4-[2-(trifluoromethyl)oxetan-2-yl]phenyl]acetyl]amino]-N-[1-(trifluoromethyl)cyclopropyl]pyridine-2-carboxamide] are 434%, 0.03 µM and 4.2.
